Results from ChEMBL document CHEMBL5346969 (J Med Chem, 2023).
The source made the active and inactive calls. No cut-off for these calls is given here.

What was measured:
[1] = target: T1, Phospholipid hydroperoxide glutathione peroxidase GPX4 (Homo sapiens) (UniProt P36969); test: Binding affinity to GPX4 (unknown origin) at Cys66 residue assessed as change in mass of single charged y6+ ion at 100 uM incubated for 1.5 hrs by SDS-PAGE based LC-MS/MS analysis
T1 sequence (whole entry): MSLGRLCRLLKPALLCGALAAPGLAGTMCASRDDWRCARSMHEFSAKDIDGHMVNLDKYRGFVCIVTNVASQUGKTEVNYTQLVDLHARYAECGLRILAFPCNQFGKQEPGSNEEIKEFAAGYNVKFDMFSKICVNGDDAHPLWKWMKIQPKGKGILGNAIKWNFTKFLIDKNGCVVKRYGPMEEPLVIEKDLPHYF

[2] = target: T1, Phospholipid hydroperoxide glutathione peroxidase GPX4 (Homo sapiens); test: Binding affinity to GPX4 (unknown origin) at Cys66 residue assessed as change in mass of single charged y5+ ion at 100 uM incubated for 1.5 hrs by SDS-PAGE based LC-MS/MS analysis
[3] = test system: HepG2; test: Antiproliferative activity against human HepG2 cells assessed as inhibition of cell viability at 1 uM incubated for 72 hrs by MTT assay; assay type: functional, cell-based
[4] = test system: MDA-MB-231; test: Induction of ferroptosis in human MDA-MB-231 cells with assessed as decrease in FTH1 protein expression level at 5 to 20 nM incubated for 8 hrs by Western blot analysis; assay type: functional, cell-based; settings: dose 5-20 nM
[5] = test system: MDA-MB-231; test: Induction of ferroptosis in human MDA-MB-231 cells assessed as cell viability incubated for 72 hrs in presence of necrosis inhibitor, necrostatin-1 by MTT assay; assay type: functional, cell-based; settings: MDA-MB-231, 72 h
[6] = test system: MDA-MB-231; test: Induction of ferroptosis in human MDA-MB-231 cells with assessed as reduction in cell viability at 5 to 20 nM incubated for 4 to 10 hrs by MTT assay; assay type: functional, cell-based; settings: dose 5-20 nM, time 4-10 hrs
[7] = MRT(t) in rat at 10 mg/kg, ip and measured upto 24 hrs by LC-MS/MS analysis; assay type: ADME, organism-based; settings: in vivo
[8] = test system: MDA-MB-231; test: Induction of ferroptosis in human MDA-MB-231 cells assessed as increase in intracellular ROS accumulation by measuring green fluorescence intensity at 5 to 20 nM incubated for 8 hrs by DCFH-DA staining based confocal laser microscopy; assay type: functional, cell-based; settings: dose 5-20 nM
[9] = Metabolic stability in human liver microsomes assessed as intrinsic clearance at 1 uM incubated upto 60 mins in presence of NADPH by LC-MS/MS analysis; assay type: ADME, Microsome; settings: read-out: CLH
[10] = test system: MCF7; test: Antiproliferative activity against human MCF7 cells assessed as inhibition of cell viability at 1 uM incubated for 72 hrs by MTT assay; assay type: functional, cell-based
[11] = test system: MDA-MB-231; test: Antiproliferative activity against human MDA-MB-231 cells assessed as inhibition of cell viability at 1 uM incubated for 72 hrs by MTT assay; assay type: functional, cell-based
[12] = test system: HeLa; test: Antiproliferative activity against human HeLa cells assessed as inhibition of cell viability at 1 uM incubated for 72 hrs by MTT assay; assay type: functional, cell-based
[13] = test system: MDA-MB-231; test: Antiproliferative activity against human MDA-MB-231 cells assessed as inhibition of cell viability incubated for 72 hrs by MTT assay; assay type: functional, cell-based; settings: MDA-MB-231, 72 h
[14] = test system: MDA-MB-231; test: Induction of ferroptosis in human MDA-MB-231 cells with assessed as change in GPX4 protein expression level at 5 to 20 nM incubated for 8 hrs in presence of ferroptosis inhibitor, ferrostatin-1 by Western blot analysis; assay type: functional, cell-based; settings: dose 5-20 nM
[15] = target: T1, Phospholipid hydroperoxide glutathione peroxidase GPX4 (Homo sapiens); test: Binding affinity to GPX4 (unknown origin) at Cys66 residue assessed as change in mass of single charged b5+ ion at 100 uM incubated for 1.5 hrs by SDS-PAGE based LC-MS/MS analysis
[16] = test system: MDA-MB-231; test: Induction of ferroptosis in human MDA-MB-231 cells assessed as increase in intracellular lipid peroxidase by measuring decrease in red fluorescence intensity at 5 to 20 nM incubated for 8 hrs by C11-BODIPY-581/591 staining based confocal laser microscopy; assay type: functional, cell-based; settings: dose 5-20 nM
[17] = AUCt in rat at 10 mg/kg, ip and measured upto 24 hrs by LC-MS/MS analysis; assay type: ADME, organism-based; parameters: dose 10 mg/kg, time < 24 hrs, route ip; settings: in vivo
[18] = Toxicity in immunodeficient BALB/c mouse xenografted with human MDA-MB-231 cells assessed as morphological changes in heart at 20 mg/kg, ip for 21 days by H and E staining based microscopy; assay type: organism-based; settings: in vivo, 504 h, time 21 day
[19] = target: T1, Phospholipid hydroperoxide glutathione peroxidase GPX4 (Homo sapiens); test: Binding affinity to GPX4 (35 to 48 residues) (unknown origin) at Sec46 residue assessed as increase in mass of single charged y3+ ion at 100 uM incubated for 1.5 hrs by SDS-PAGE based LC-MS/MS analysis
[20] = Toxicity in immunodeficient BALB/c mouse xenografted with human MDA-MB-231 cells assessed as morphological changes in spleen at 20 mg/kg, ip for 21 days by H and E staining based microscopy; assay type: organism-based; settings: in vivo, 504 h, time 21 day
[21] = target: T1, Phospholipid hydroperoxide glutathione peroxidase GPX4 (Homo sapiens); test: Binding affinity to GPX4 (unknown origin) at Cys66 residue assessed as change in mass of single charged y4+ ion at 100 uM incubated for 1.5 hrs by SDS-PAGE based LC-MS/MS analysis
[22] = Clearance in rat at 10 mg/kg, ip and measured upto 24 hrs by LC-MS/MS analysis; assay type: ADME, organism-based; settings: in vivo
[23] = target: T1, Phospholipid hydroperoxide glutathione peroxidase GPX4 (Homo sapiens); test: Binding affinity to GPX4 (unknown origin) at Cys66 residue assessed as change in mass of single charged b4+ ion at 100 uM incubated for 1.5 hrs by SDS-PAGE based LC-MS/MS analysis
[24] = test system: MDA-MB-231; test: Induction of ferroptosis in human MDA-MB-231 cells with assessed as upregulation of GPX4 protein expression level at 5 to 20 nM incubated for <6 hrs by Western blot analysis; assay type: functional, cell-based; settings: dose 5-20 nM
[25] = target: T1, Phospholipid hydroperoxide glutathione peroxidase GPX4 (Homo sapiens); test: Binding affinity to GPX4 in human MDA-MB-231 cells assessed as decrease in apprent aggregation temperature at 1 uM incubated for 2 hrs by CESTA analysis (Rvb=58.3 +/- 0.7 degreeC); assay type: cell-based
[26] = target: T1, Phospholipid hydroperoxide glutathione peroxidase GPX4 (Homo sapiens); test: Binding affinity to GPX4 in human MDA-MB-231 cells assessed as reduction in thermal stability at 1 uM incubated for 2 hrs by CESTA analysis; assay type: cell-based
[27] = Toxicity in immunodeficient BALB/c mouse assessed as change in LDH level at 20 mg/kg, ip for 14 days by biochemical analysis; assay type: organism-based; settings: in vivo, 336 h, time 14 day
[28] = test system: MDA-MB-231; test: Induction of ferroptosis in siRNA mediated GPX4 knockdown human MDA-MB-231 cells with assessed as change in FTH1 protein expression level at 20 nM incubated for 8 hrs by Western blot analysis; assay type: functional, cell-based
[29] = test system: A549; test: Antiproliferative activity against human A549 cells assessed as inhibition of cell viability at 1 uM incubated for 72 hrs by MTT assay; assay type: functional, cell-based
[30] = target: T1, Phospholipid hydroperoxide glutathione peroxidase GPX4 (Homo sapiens); test: Binding affinity to GPX4 (unknown origin) at Cys66 residue assessed as change in mass of single charged y3+ ion at 100 uM incubated for 1.5 hrs by SDS-PAGE based LC-MS/MS analysis
[31] = Half life in rat at 10 mg/kg, ip and measured upto 24 hrs by LC-MS/MS analysis; assay type: ADME, organism-based; settings: in vivo
[32] = Toxicity in immunodeficient BALB/c mouse assessed as bone marrow suppression by measuring WBC level at 20 mg/kg, ip for 14 days by whole blood analysis; assay type: organism-based; settings: in vivo, 336 h, time 14 day

SMILES | Activity [3] | Activity [4] | IC50 [5] | Activity [8] | microsomal CLint at 1 µM [9] | Activity [10] | Activity [11] | Activity [12] | IC50 [13] | Activity [14] | Activity [16] | Activity [18] | Activity [20] | Activity [27] | Activity [29] | other results
COc1cc(N(C(=O)CCl)c2ccc3c(c2)OCCO3)cc(OC)c1F | inactive | Active | 22 nM | Dose-Dependent Effect | 416 µL/min/mg | Active | Active | inactive | 12 nM | inactive | Dose-Dependent Effect | Non-Toxic | Non-Toxic | Toxic | inactive | Activity [1]: inactive; Activity [2]: inactive; Activity [6]: Dose-Dependent Effect; MRT last at 24 h [7]: 1.71 h; Activity [15]: inactive; AUCt [17]: 12100 ng·h/mL; Activity [19]: Active; Activity [21]: inactive; CL [22]: 13.8 mL/min/kg; Activity [23]: inactive; Activity [24]: Active; T [25]: 51.8 °C; Activity [26]: Active; Activity [28]: inactive; Activity [30]: inactive; t1/2 [31]: 1.9 h
COc1cc(N(C(=O)CBr)c2ccc3c(c2)OCCO3)cc(OC)c1F | inactive | Active | 25 nM | Dose-Dependent Effect | 1740 µL/min/mg | inactive | Active | inactive | 8 nM | inactive | Dose-Dependent Effect | Non-Toxic | Non-Toxic | Toxic | inactive | Activity [32]: Toxic
